# Data taken from ChEMBL document CHEMBL4680217, “Discovery of PROTAC BCL-X degraders as potent anticancer agents with low on-target platelet toxicity” (Eur J Med Chem, 2020).
# Active and inactive are the calls of the source. The rule behind the calls is not given here.
# What was measured:
# [1] = molecular target: von Hippel-Lindau disease tumor suppressor/Apoptosis regulator Bcl-2 (Homo sapiens) (UniProt P10415+P40337); experiment: Protac activity at VHL/BCL2 in human MOLT-4 cells assessed as induction of BCL2 degradation at 100 nM measured after 16 hrs by immunoblotting analysis; format: cell-based
# Sequence of von Hippel-Lindau disease tumor suppressor/Apoptosis regulator Bcl-2 (Homo sapiens) (P10415 whole entry, looked up): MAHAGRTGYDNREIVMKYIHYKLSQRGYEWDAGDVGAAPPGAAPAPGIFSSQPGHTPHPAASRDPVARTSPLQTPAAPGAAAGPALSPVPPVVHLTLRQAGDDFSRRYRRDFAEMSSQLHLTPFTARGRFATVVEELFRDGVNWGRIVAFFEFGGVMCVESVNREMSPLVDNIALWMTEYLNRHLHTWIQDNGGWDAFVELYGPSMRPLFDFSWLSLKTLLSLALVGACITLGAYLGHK
# Sequence of von Hippel-Lindau disease tumor suppressor/Apoptosis regulator Bcl-2 (Homo sapiens) (P40337 whole entry, looked up): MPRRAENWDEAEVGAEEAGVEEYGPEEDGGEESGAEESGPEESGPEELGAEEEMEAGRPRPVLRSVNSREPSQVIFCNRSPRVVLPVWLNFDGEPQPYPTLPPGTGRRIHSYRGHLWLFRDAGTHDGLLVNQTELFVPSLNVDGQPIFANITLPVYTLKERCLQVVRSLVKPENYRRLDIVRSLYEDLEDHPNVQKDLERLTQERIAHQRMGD
# [2] = molecular target: von Hippel-Lindau disease tumor suppressor/Bcl-2-like protein 1 (Homo sapiens, UniProt Q07817+P40337); experiment: Protac activity at VHL/BCL-XL in human MOLT-4 cells assessed as induction of BCL-XL degradation by measuring remaining BCL-XL level at 100 nM measured after 16 hrs by immunoblotting analysis relative to control; format: cell-based
# Sequence of von Hippel-Lindau disease tumor suppressor/Bcl-2-like protein 1 (P40337 whole entry, looked up): as above
# Sequence of von Hippel-Lindau disease tumor suppressor/Bcl-2-like protein 1 (Q07817 whole entry, looked up): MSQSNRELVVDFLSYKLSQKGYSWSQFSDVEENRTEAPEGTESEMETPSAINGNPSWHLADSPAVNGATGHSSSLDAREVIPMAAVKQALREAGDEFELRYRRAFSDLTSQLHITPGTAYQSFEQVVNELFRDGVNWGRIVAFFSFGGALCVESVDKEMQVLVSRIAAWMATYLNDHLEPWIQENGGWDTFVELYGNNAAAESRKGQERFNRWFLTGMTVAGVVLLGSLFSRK
# MOLT-4 = experiment: Antiproliferative activity against human MOLT-4 cells assessed as reduction in cell viability measured after 48 hrs by MTS assay; format: functional, cell-based; conditions: MOLT-4, 48 h
SMILES,Activity [1],Activity [2] [%],IC50 (MOLT-4) [nM]
Cc1ncsc1-c1ccc([C@H](C)NC(=O)[C@@H]2C[C@@H](O)CN2C(=O)[C@@H](NC(=O)CCOCCC(=O)N2CCN(CC[C@H](CSc3ccccc3)Nc3ccc(S(=O)(=O)NC(=O)c4ccc(N5CCN(CC6=C(c7ccc(Cl)cc7)CCC(C)(C)C6)CC5)cc4)cc3S(=O)(=O)C(F)(F)F)CC2)C(C)(C)C)cc1,inactive,62,324
Cc1ncsc1-c1ccc([C@H](C)NC(=O)[C@@H]2C[C@@H](O)CN2C(=O)[C@@H](NC(=O)CCCCCN(C)CC[C@H](CSc2ccccc2)Nc2ccc(S(=O)(=O)NC(=O)c3ccc(N4CCN(CC5=C(c6ccc(Cl)cc6)CCC(C)(C)C5)CC4)cc3)cc2S(=O)(=O)C(F)(F)F)C(C)(C)C)cc1,inactive,60,460
Cc1ncsc1-c1ccc([C@H](C)NC(=O)[C@@H]2C[C@@H](O)CN2C(=O)[C@@H](NC(=O)CCC(=O)N2CCN(CC[C@H](CSc3ccccc3)Nc3ccc(S(=O)(=O)NC(=O)c4ccc(N5CCN(CC6=C(c7ccc(Cl)cc7)CCC(C)(C)C6)CC5)cc4)cc3S(=O)(=O)C(F)(F)F)CC2)C(C)(C)C)cc1,inactive,92,> 2000
Cc1ncsc1-c1ccc([C@H](C)NC(=O)[C@@H]2C[C@@H](O)CN2C(=O)[C@@H](NC(=O)COCCCOCC(=O)N2CCN(CC[C@H](CSc3ccccc3)Nc3ccc(S(=O)(=O)NC(=O)c4ccc(N5CCN(CC6=C(c7ccc(Cl)cc7)CCC(C)(C)C6)CC5)cc4)cc3S(=O)(=O)C(F)(F)F)CC2)C(C)(C)C)cc1,inactive,48,232
Cc1ncsc1-c1ccc([C@H](C)NC(=O)[C@@H]2C[C@@H](O)CN2C(=O)[C@@H](NC(=O)CCCCCC(=O)N(C)CC[C@H](CSc2ccccc2)Nc2ccc(S(=O)(=O)NC(=O)c3ccc(N4CCN(CC5=C(c6ccc(Cl)cc6)CCC(C)(C)C5)CC4)cc3)cc2S(=O)(=O)C(F)(F)F)C(C)(C)C)cc1,inactive,78,> 2000
Cc1ncsc1-c1ccc([C@H](C)NC(=O)[C@@H]2C[C@@H](O)CN2C(=O)[C@@H](NC(=O)CCCCCCCCCN(C)CC[C@H](CSc2ccccc2)Nc2ccc(S(=O)(=O)NC(=O)c3ccc(N4CCN(CC5=C(c6ccc(Cl)cc6)CCC(C)(C)C5)CC4)cc3)cc2S(=O)(=O)C(F)(F)F)C(C)(C)C)cc1,inactive,62,1060
Cc1ncsc1-c1ccc([C@H](C)NC(=O)[C@@H]2C[C@@H](O)CN2C(=O)[C@@H](NC(=O)CC(=O)N2CCN(CC[C@H](CSc3ccccc3)Nc3ccc(S(=O)(=O)NC(=O)c4ccc(N5CCN(CC6=C(c7ccc(Cl)cc7)CCC(C)(C)C6)CC5)cc4)cc3S(=O)(=O)C(F)(F)F)CC2)C(C)(C)C)cc1,inactive,96,> 2000
Cc1ncsc1-c1ccc([C@H](C)NC(=O)[C@@H]2C[C@@H](O)CN2C(=O)[C@@H](NC(=O)CCCCN(C)CC[C@H](CSc2ccccc2)Nc2ccc(S(=O)(=O)NC(=O)c3ccc(N4CCN(CC5=C(c6ccc(Cl)cc6)CCC(C)(C)C5)CC4)cc3)cc2S(=O)(=O)C(F)(F)F)C(C)(C)C)cc1,inactive,75,1240

# These reach a lower IC50 (MOLT-4). Values come first.
Activity [1],Activity [2] [%],IC50 (MOLT-4) [nM],SMILES
inactive,24,97,Cc1ncsc1-c1ccc([C@H](C)NC(=O)[C@@H]2C[C@@H](O)CN2C(=O)[C@@H](NC(=O)COCCOCCN(C)CC[C@H](CSc2ccccc2)Nc2ccc(S(=O)(=O)NC(=O)c3ccc(N4CCN(CC5=C(c6ccc(Cl)cc6)CCC(C)(C)C5)CC4)cc3)cc2S(=O)(=O)C(F)(F)F)C(C)(C)C)cc1
inactive,32,108,Cc1ncsc1-c1ccc([C@H](C)NC(=O)[C@@H]2C[C@@H](O)CN2C(=O)[C@@H](NC(=O)CCCCCCC(=O)N2CCN(CC[C@H](CSc3ccccc3)Nc3ccc(S(=O)(=O)NC(=O)c4ccc(N5CCN(CC6=C(c7ccc(Cl)cc7)CCC(C)(C)C6)CC5)cc4)cc3S(=O)(=O)C(F)(F)F)CC2)C(C)(C)C)cc1
inactive,78,181,Cc1ncsc1-c1ccc([C@H](C)NC(=O)[C@@H]2C[C@@H](O)CN2C(=O)[C@@H](NC(=O)CCCCCCCN2CCN(CC[C@H](CSc3ccccc3)Nc3ccc(S(=O)(=O)NC(=O)c4ccc(N5CCN(CC6=C(c7ccc(Cl)cc7)CCC(C)(C)C6)CC5)cc4)cc3S(=O)(=O)C(F)(F)F)CC2)C(C)(C)C)cc1
inactive,49,139,Cc1ncsc1-c1ccc([C@H](C)NC(=O)[C@@H]2C[C@@H](O)CN2C(=O)[C@@H](NC(=O)CCCCCCCCN(C)CC[C@H](CSc2ccccc2)Nc2ccc(S(=O)(=O)NC(=O)c3ccc(N4CCN(CC5=C(c6ccc(Cl)cc6)CCC(C)(C)C5)CC4)cc3)cc2S(=O)(=O)C(F)(F)F)C(C)(C)C)cc1
inactive,62,94.5,Cc1ncsc1-c1ccc([C@H](C)NC(=O)[C@@H]2C[C@@H](O)CN2C(=O)[C@@H](NC(=O)CCCCCCN2CCN(CC[C@H](CSc3ccccc3)Nc3ccc(S(=O)(=O)NC(=O)c4ccc(N5CCN(CC6=C(c7ccc(Cl)cc7)CCC(C)(C)C6)CC5)cc4)cc3S(=O)(=O)C(F)(F)F)CC2)C(C)(C)C)cc1
inactive,72,151,Cc1ncsc1-c1ccc([C@H](C)NC(=O)[C@@H]2C[C@@H](O)CN2C(=O)[C@@H](NC(=O)CCOCCN2CCN(CC[C@H](CSc3ccccc3)Nc3ccc(S(=O)(=O)NC(=O)c4ccc(N5CCN(CC6=C(c7ccc(Cl)cc7)CCC(C)(C)C6)CC5)cc4)cc3S(=O)(=O)C(F)(F)F)CC2)C(C)(C)C)cc1
inactive,33,200,Cc1ncsc1-c1ccc([C@H](C)NC(=O)[C@@H]2C[C@@H](O)CN2C(=O)[C@@H](NC(=O)COCCOCCOCCN(C)CC[C@H](CSc2ccccc2)Nc2ccc(S(=O)(=O)NC(=O)c3ccc(N4CCN(CC5=C(c6ccc(Cl)cc6)CCC(C)(C)C5)CC4)cc3)cc2S(=O)(=O)C(F)(F)F)C(C)(C)C)cc1
inactive,61,130,Cc1ncsc1-c1ccc([C@H](C)NC(=O)[C@@H]2C[C@@H](O)CN2C(=O)[C@@H](NC(=O)CCCCN2CCN(CC[C@H](CSc3ccccc3)Nc3ccc(S(=O)(=O)NC(=O)c4ccc(N5CCN(CC6=C(c7ccc(Cl)cc7)CCC(C)(C)C6)CC5)cc4)cc3S(=O)(=O)C(F)(F)F)CC2)C(C)(C)C)cc1
inactive,45,147,Cc1ncsc1-c1ccc([C@H](C)NC(=O)[C@@H]2C[C@@H](O)CN2C(=O)[C@@H](NC(=O)CCCCCCCN(C)CC[C@H](CSc2ccccc2)Nc2ccc(S(=O)(=O)NC(=O)c3ccc(N4CCN(CC5=C(c6ccc(Cl)cc6)CCC(C)(C)C5)CC4)cc3)cc2S(=O)(=O)C(F)(F)F)C(C)(C)C)cc1
inactive,33,206,Cc1ncsc1-c1ccc([C@H](C)NC(=O)[C@@H]2C[C@@H](O)CN2C(=O)[C@@H](NC(=O)COCCOCCOCCOCCN(C)CC[C@H](CSc2ccccc2)Nc2ccc(S(=O)(=O)NC(=O)c3ccc(N4CCN(CC5=C(c6ccc(Cl)cc6)CCC(C)(C)C5)CC4)cc3)cc2S(=O)(=O)C(F)(F)F)C(C)(C)C)cc1
